The source of these data is patent US8338480B2, “Combination treatment of metabolic disorders” (Wellstat Therapeutics Corporation, priority 2006, dated 2012).

What all share (type): in vivo
For assay [1], the system named is db/db mice. The assay can be described thus: Serum glucose in db/db mice, combinations with rosiglitazone or pioglitazone, 4 weeks (Example 5). To be noted: 4 weeks oral once per day. How it is done:
Male db/db mice have a defect in the receptor for the appetite-regulating protein leptin and consequently develop hyperphagia, obesity, insulin resistance, hyperglycemia, hypertriglyceridemia. Male db/db mice are an accepted animal model for Type II diabetes. The effect of a range of single daily doses of orally administered Compound BI was assessed in this model, and the efficacy of rosiglitazone alone and in combination with Compound BI was also examined.
Male C57BL/Ksola db/db mice (“db/db mice”) were obtained from Harlan (Indianapolis, Ind.) and allowed to acclimate for a minimum of one week.
Body weights and blood glucose levels were measured and animals were sorted groups of 6-7 mice with equivalent mean body weights in each group. […].
• 12. Vehicle • 13. Compound BI 100 mg/kg/day • 14. Rosiglitazone 3 mg/kg • 15. Rosiglitazone 3 mg/kg+Compound BI 100 mg/kg • 16. Pioglitazone 30 mg/kg • 17. Pioglitazone 30 mg/kg+Compound BI 100 mg/kg • 18. Pioglitazone 100 mg/kg • 19. Pioglitazone 100 mg/kg+Compound BI 100 mg/kg
Drug preparation: Compound BI was suspended in a vehicle comprising 1% aqueous hydroxypropylmethylcellulose, using a tissue homogenizer to minimize particle size and maximize uniformity of the suspension. Pioglitazone and rosiglitazone were suspended in the same vehicle after pulverization of commercial tablets of each of these drugs. Drug concentrations in the dosing suspension for each treatment group were adjusted according to body weights so that a constant volume of 0.4 ml provided appropropriate drug doses in all groups.
Drug Administration: Drugs were administered orally by gavage once per day for 28 days.
Blood sampling: For serum chemistry analysis, nonfasting blood samples (200 microliters) were obtained via the retro-orbital sinus and collected in serum separator tubes at 11 AM on day 28 after initiation of drug administration.

For assay [2], the system named is db/db mice. The assay can be described thus: Serum glucose in db/db mice after two weeks (Example 4). To be noted: compound alone 100 mg/kg. The method, then: (§1) • 8. Vehicle (1% hydroxypropylmethylcellulose) • 9. Compound BI 100 mg/kg • 10. Rosiglitazone (RSG) 3 mg/kg • 11. Compound BI 100 mg/kg+RSG 3 mg/kg • 12. Compound CF 100 mg/kg • 13. Compound CF 100 mg/kg+RSG 3 mg/kg • 14. Compound CT 100 mg/kg+RSG 3 mg/kg • 15. […]
(§2) After two weeks, blood samples were collected from the retro-orbital sinus and processed for serum chemistry measurements.

The next assay has as its system Adiponectin. The assay can be described thus: Serum adiponectin in db/db mice after two weeks (Example 4). To be noted: for Adiponectin ± SD: db/db mice serum, compound alone 100 mg/kg; for effect on adiponectin with concurrent rosiglitazone (in words) / serum adiponectin, individual agents (in words): db/db mice; for effect on adiponectin with concurrent rosiglitazone (in words): 100 mg/kg + RSG 3 mg/kg; for serum adiponectin, individual agents (in words): agent alone.
Source text: Adiponectin is an glycoprotein secreted from white adipose tissue. Adiponectin improves insulin sensitive in other tissues, e.g. muscle and liver, and is also protective against atherosclerosis. Thiazolidinedione antidiabetic agents such as rosiglitazone or pioglitazone act largely via action at the PPAR-gamma, a nuclear receptor involved in regulation of fuel metabolism. PPAR-gamma agonists enhance adiponectin production by adipose tissue, and this may contribute to their beneficial effects in diabetes and related metabolic disorders.
as §1, §2

The next assay has as its system Male C57B1/6 mice. The assay can be described thus: Food intake and body weight of male C57Bl/6 mice under restricted feeding (Example 3). Particulars: for Post-treatment Food Intake (5 Hour): 5 hour meal; for food intake (in words): restricted feeding paradigm; for Change in Body weight % / Change in Body weight (grams ± SEM) / Post-treatment Body weight: restricted feeding. How it is done:
Animals. […] Food was withheld for the remainder of each day. Because of the restricted feeding time, the mice eat less than under ad libitum food availability. Therefore, reduction of food intake in this model requires a drug effect sufficient to overcome the hunger stimulus provided by subnormal daily food intake. Drug Administration. Groups of 10 mice each (individually weighed and marked, divided into 5/cage and trained and monitored as above; were dosed once per day with Compound BI (100 mg/kg), rosiglitazone (3 mg/kg), both drugs, or vehicle by oral gavage at 8 AM for four consecutive days. Comparator groups receiving appetite modulators not suitable for oral dosing (PYY and cerulenin) received intraperitoneal injections at 8 AM for four consecutive days. […] [table]

Where [3] appears, read: Cerulenin 30 mg/kg i.p. once per day.
The mark [4] stands for this setting: PYY 100 mg/kg i.p. once per day.

Where a name gives a salt, the structure may show the parent alone.

As for `CCc1ccc(CCOc2ccc(CC3SC(=O)NC3=O)cc2)nc1` (centres unmarked) [PIO, pioglitazone hydrochloride], the “Serum Glucose (mg/dL) Mean ± SD” value with db/db mice [1] (PIO 30 mg/kg) is 550 ± 74 mg/dL; in the assay with db/db mice [1] (PIO 100 mg/kg) it was 597 ± 228 mg/dL.

As for `Cc1cccc(C)c1COc1cccc(CC(=O)O)c1` [Compound CF, 3-(2,6-Dimethylbenzyloxy)phenylacetic acid], in the assay with db/db mice [2], the “Glucose ± SD” value is given as 305 ± 75 mg/dL. In the assay on Adiponectin, the “Adiponectin ± SD” value was 6.5 ± 2.0 micrograms/ml; the “effect on adiponectin with concurrent rosiglitazone (in words)” value was “strongly amplify the effect of concurrent rosiglitazone on adiponectin”; the “serum adiponectin, individual agents (in words)” value was “did not elevate serum adiponectin levels”.

In the case of `C/C=C/C/C=C/CCC(=O)[C@H]1O[C@H]1C(N)=O` [Cerulenin], in the assay on Male C57B1/6 mice (setting [3]), the “Post-treatment Food Intake (5 Hour)” value was found to be 2.45 ± 0.10 grams, the “Change in Body weight %” value was “+0.81 ± 0.49%”, the “Change in Body weight (grams ± SEM)” value is reported as “+0.16 ± 0.10 grams” and the “Post-treatment Body weight” value is on record as 21.18 ± 0.66 grams. Besides, in the assay on Male C57B1/6 mice, the “food intake (in words)” value was “failed to have an effect”.

As for `Cc1cccc(C)c1COc1cccc(CC(=O)NO)c1` [Compound CT, N-Hydroxy-2-[3-(2,6-dimethylbenzyloxy)phenyl]acetamide], the “Glucose ± SD” value in the assay with db/db mice [2] is given as 235 ± 107 mg/dL. In addition, in the assay on Adiponectin, the “Adiponectin ± SD” value is given as 5.4 ± 1.5 micrograms/ml; the “effect on adiponectin with concurrent rosiglitazone (in words)” value is “strongly amplify the effect of concurrent rosiglitazone on adiponectin”; the “serum adiponectin, individual agents (in words)” value is “did not elevate serum adiponectin levels”.

Peptide YY fragment 3-36 human [PYY]: in the assay on Male C57B1/6 mice (setting [4]), the “Post-treatment Food Intake (5 Hour)” value is 2.28 ± 0.25 grams, the “Change in Body weight %” value was −0.96 ± 0.50%, the “Change in Body weight (grams ± SEM)” value is given as −0.20 ± 0.10 grams and the “Post-treatment Body weight” value is reported as 20.86 ± 0.33 grams. In addition, the “food intake (in words)” value with Male C57B1/6 mice is given as “failed to have an effect”.
